Entries after “also recorded” stand apart in the source; their conditions may differ.
Columns and labels:
rat basilar arteries = assay: 48 h organ culture of basilar artery, VDCC independent contraction (Ca2+ curve after ET-1 precontraction with nimodipine); assay type: cell-based; conditions: 1 μM inhibitor, 48 h OC, 10^-7 M nimodipine
Protocol: (§1) Rats were sedated with O2/CO2 (30/70%) and sacrificed by decapitation. Brains were gently removed and chilled in a cold oxygenated buffer solution of the following composition: 119 mM NaCl, 4.6 mM KCl, 1.5 mM CaCl2, 1.2 mM MgCl2, 1.2 mM NaH2PO4, 15 mM NaHCO3 and 5.5 mM Glucose; pH 7.4. The basilar artery (BA) was carefully dissected from the brain in a physiological buffer solution followed by either OC (naïve animals) or directly mounted in a wire myograph (arteries from rats which has undergone surgical procedures). Segments were incubated for 48 hours at 37° C. in humidified 5% CO2/O2 in DMEM supplemented with streptomycin and penicillin with inhibitors or vehicle (DMSO). Culture media was changed after 24 hours.
(§2) The segments were equilibrated in physiological buffer aerated with 95% O2/5% CO2, pH of 7.4, temperature set at 37° C. and the wires were separated for isometric pretension at 2 Nm^−1. The arterial segments were exposed two or three times with 60 mM K^+, by exchanging the buffer with a 60 mM K^+ buffer solution. To maintain equal osmolarity, a proportional amount of Na^+ had been removed from the buffer. An absolute cut-off was set at 2.0 mN K^+max for inclusion of arterial segments from rats that underwent the surgical procedure. Endothelium function was evaluated with the addition of 5-HT (3.10^−7 M) followed by carbachol (10^−5 M). […]

[1] = tested on: rat subarachnoid haemorrhage model; assay: Rat SAH model, intraperitoneal treatment, myograph of basilar arteries; assay type: in vivo; conditions: SAH + i.p. treatment at 6 and 24 hours
Protocol: (§3) For contractility measurements, both incubated BAs (ex vivo) and BAs after surgical procedure (in vivo) were cut into segments and mounted on a pair of metal wires (40 μm) in a myograph bath. The arteries from OC were mounted the same way after 48 hours in media. One wire was attached to a micro-meter screw which allows for fine adjustments of the distance between the wires, controlling the vascular tone.
as §2, with “M). For arteries from the OC the protocol was as followed: first a cumulative concentration-response curve to sarafotoxin 6C (S6c, 10^−14-10^−7 M), followed by a concentration-response curve to endothelin-1 (ET-1, 10^−14-10^−7 M).” for “M).”

[2] = tested on: rat subarachnoid haemorrhage model; assay: Rotating pole test after SAH, intraperitoneal treatment; assay type: in vivo; conditions: SAH + i.p. treatment, 48 hours post-SAH
Protocol: Gross sensorimotor function was evaluated using a rotating pole test, including a baseline evaluation on the day before induction of SAH. Briefly, movement across a 10-rpm rotating pole (45 mm diameter, 150 cm length) was evaluated with a cage at the end that contain the rat's own bedding material (“smells like home”). Rat performance was scored according to the following definitions: Low, the animal is unable to cross the pole without falling off; High, the animal can traverse the entire pole without falling off. All animals were trained to traverse the pole before surgery. Pre-SAH and on day 1 and 2 after surgery, each animal was scored twice for left and right rotation respectively, i.e. 4 counts per animal. Animals were graded by personnel blinded to the experimental groups of the animals. Data are shown percentage as % high score count/total score count.
For the intraperitoneal treatment (i.p) the compound was dissolved in 10% cremophor EL (Kolliphor EL) and 10% PEG400 in NaCl, which also served as vehicle. The total dose was administered as two treatments (6 hours and 24 hours). Animals were given 2.5 ml isotonic saline s.c. to avoid dehydration, immediately after surgery and in conjunction with the treatments.

[3] = tested on: rat subarachnoid hemorrhage model; assay: In vivo SAH, intraperitoneal trametinib, ET-1 concentration-response in BAs (Example 11)
Protocol: Thirty-two rats were operated for this study. Animals were treated intraperitoneally with 250 μl/body weight of a 1 mM solution of trametinib (Selleckchem), yielding a final dose of 95 μg/body weight, diluted in 10% cremophor and 10% PEG400 in NaCl. Animals in the vehicle and sham group were treated with 250 μl/body weight 10% cremophor and 10% PEG400 in NaCl. Treatment was intraperitoneally administered either at 1 h and 24 h or 6 h and 24 h post surgery. Animals were terminated 48 h after surgery by CO2 anesthesia and decapitation.

[4] = tested on: rat basilar arteries (contractile ETB receptors); assay: 48 h organ culture of basilar artery, S6c (ETB agonist)-induced contraction in wire myograph; assay type: cell-based
Protocol: as §1, §3
The segments were equilibrated in physiological buffer aerated with 95% O2/5% CO2, pH of 7.4, temperature set at 37° C. and the wires were separated for isometric pretension at 2 Nm^−1. The arterial segments were exposed two or three times with 60 mM K^+, by exchanging the buffer with a 60 mM K^+ buffer solution. To maintain equal osmolarity, a proportional amount of Na^+ had been removed from the buffer. An absolute cut-off was set at 2.0 mN K^+max for inclusion of arterial segments from rats that underwent the surgical procedure. Endothelium function was evaluated with the addition of 5-HT (3.10^−7 M) followed by carbachol (10^−5 M). For arteries from the OC the protocol was as followed: first a cumulative concentration-response curve to sarafotoxin 6C (S6c, 10^−14-10^−7 M), followed by a concentration-response curve to endothelin-1 (ET-1, 10^−14-10^−7 M). At peak ET-1 (10^−7 M), the buffer was changed to a Ca^2+-free buffer containing 10^−7 M ET-1 and nimodipine (L-type of voltage dependent Ca^2+ channel entry blocker, 10^−7 M). A concentration-response curve to Ca^2+ (0.0125-3 mM) was then performed. When vasodilation was investigated arteries was precontracted with U46619 (1.10^−7-3.10^−7 M) or K^+ (41 mM) and cumulative concentration-response curves was performed by adding calcitonin gene-related peptide (CGRP, 10^−12-10^−7 M), carbachol (10^−10-10^−5 M) or SNP (10^−11-10^−4 M).
Contractile responses of each segment were adjusted according to the length of the artery and are expressed as mN/mm (Nm^−1). […] To compare ET-1 sensitivity, arteries were normalized to the percentage of the individual vessel ET-1max. When the artery reached maximum contraction before the last concentration was added, the curves were constrained to the max contraction. The relative log IC50/log EC50 is the concentration corresponding to a response midway between the estimates of the lower and upper plateaus. The Emax is the maximal contraction in the concentration response curve and ET-1max is the maximal contraction to ET-1. All quantitative data is presented as mean±standard error of the mean (SEM), unless otherwise stated.

## CC(=O)Nc1cccc(-n2c(=O)n(C3CC3)c(=O)c3c(Nc4ccc(I)cc4F)n(C)c(=O)c(C)c32)c1 [trametinib]
Rat basilar arteries
  VDCC independent contraction: significantly prevented
[1]
  ET-1 contractility (at 10^-9.5 M) vs SAH+i.p. vehicle: significant decrease in contractility
  contractile response of BAs to 60 mM K+: 3.03±0.19 Nm-1
[2]
  rotating pole Score48 h (% high score count/total score count): 100%
[3]; i.p. 1 mM at 1 and 24 h post-SAH
  increased ET-1-induced concentration-response curve in BAs after SAH: significantly inhibited
[3]; i.p. 1 mM at 6 and 24 h post-SAH
  increased ET-1-induced concentration-response curve in BAs after SAH: significantly inhibited
[4]; 1 μM inhibitor, 48 h organ culture, S6c contraction relative to 60 mM K+
  inhibition of S6c-induced contraction (initial screening groups): Highly effective; also recorded: almost completely inhibited
[4]; Rattus norvegicus, 48 h organ culture, inhibition of S6c-induced contraction, read-out: pIC50 (based on the Emax for S6c) (converted)
  IC50: 20.9 nM
[4]; at predicted CSF concentration of approximately 10^-7 M
  estimated inhibitor effect in the ex vivo OC study: ~75%

Reference: patent US20220273660A1, “MEK INHIBITOR FOR TREATMENT OF STROKE” (EDVINCE AB, priority 2019, published 2022)
